{"source": "patent US12419947B2", "about": "“Inorganic polyatomic oxyanions for protecting against antigenic damage during pathogen inactivation for vaccine production” (priority 2016, dated 2025)", "key": {"[1]": {"system": "dengue serotype 4 (DENV4)", "experiment": "DENV-specific sandwich ELISA (MAbs 15A5 and 6H6) on treated DENV4", "type": "binding, dengue virus", "conditions": "for antigenicity (ELISA at 20 hrs post-inactivation): H2O2=0.01%, compound 10 μM; for ELISA signal / antigenicity with added salt during H2O2/CuCl2 inactivation: 0.01% H2O2, 1 μM CuCl2, 20 hours, vs standard conditions; for ELISA signal with added oxyanion during formaldehyde inactivation: 0.01% formaldehyde, 20 days at 37° C.; for ELISA signal with added oxyanion during BPL inactivation: 0.1% BPL"}, "[2]": {"system": "dengue virus 3 (DENV3)", "experiment": "DENV-specific sandwich ELISA on treated DENV3", "type": "binding", "conditions": "H2O2 0.01%"}, "[3]": {"system": "DENV2", "experiment": "DENV2 inactivation kinetics (PFU assay)", "type": "cell-based, dengue virus", "conditions": "3% H2O2, or 0.01% H2O2 and 1 μM CuCl2, room temperature"}, "[4]": {"system": "yellow fever virus (YFV)"}, "[5]": {"system": "Campylobacter coli (C. coli)", "experiment": "Campylobacter morphology after inactivation (Gram safranin stain)", "conditions": "3% H2O2 5 hours, or 0.01% H2O2 and 2 uM CuCl2"}, "[6]": {"system": "chikungunya virus (CHIKV)", "experiment": "CHIKV-specific sandwich ELISA (retained antigenicity)", "type": "binding"}, "[7]": {"system": "dengue serotype 4 (DENV4)", "experiment": "DENV4 live virus plaque assay on Vero cells", "type": "cell-based, dengue virus", "conditions": "for rate of inactivation (viable virus at 1 hr post-inactivation): H2O2=0.01%, compound 10 μM; for virus inactivation with added salt during H2O2/CuCl2 inactivation: 0.01% H2O2, 1 μM CuCl2, 20 hours"}, "[8]": {"system": "chikungunya virus (CHIKV)", "type": "cell-based"}, "[9]": {"system": "vaccinia", "conditions": "cited from earlier work"}, "[10]": {"system": "Listeria monocytogenes", "experiment": "Listeria monocytogenes inactivation (CFU/mL)", "type": "cell-based", "conditions": "H2O2=0.10%, MZ=100 μM, 150 mM NaPO4"}, "[11]": {"system": "vaccinia virus (VV)", "type": "cell-based", "conditions": "H2O2=0.002%, CuCl2=1 μM, MZ=10 μM, PBS pH=7.5"}, "[12]": {"system": "Campylobacter coli (C. coli)", "experiment": "C. coli inactivation (viable bacteria over time)", "type": "cell-based", "conditions": "H2O2=0.01%, MZ=20 μM, 150 mM NaPO4"}, "[13]": {"system": "Shigella dysenteriae", "experiment": "Shigella dysenteriae inactivation (CFU/mL)", "type": "cell-based", "conditions": "H2O2=0.10%, CuCl2=10 μM, MZ=100 μM, 150 mM NaPO4"}, "[14]": {"system": "smallpox", "conditions": "in vivo; cited from earlier work"}, "[15]": {"conditions": "0.01% formaldehyde with high oxyanion, 20 days at 37° C."}, "[16]": {"conditions": "0.1% BPL with high oxyanion, 20 hours"}, "[17]": {"conditions": "BEI, Na2HPO4 150 mM, 20 hours at 37° C."}, "[18]": {"conditions": "20 hours, room temperature, 150 mM NaPO4"}}}
{"smiles": "O=C1CCO1", "note": "[BPL, β-propiolactone, reference compound]", "values": [{"measurement": "ELISA signal", "setting": "[1]; standard BPL conditions: 0.1% BPL, 20 hours, room temperature", "value": "loss of ELISA signal"}]}
{"smiles": "[Cl][Fe]([Cl])[Cl]", "note": "[FeCl3]", "values": [{"measurement": "antigenicity with increasing FeCl3 concentrations", "setting": "[2]", "value": "enhanced antigenicity"}]}
{"smiles": "OO", "note": "[H2O2, hydrogen peroxide]", "values": [{"measurement": "kinetics of virus inactivation versus total viral protein concentration", "setting": "[3]", "value": "protein concentration-independent"}, {"measurement": "neutralizing epitopes (antigenicity)", "setting": "[4]", "value": "severe damage to neutralizing epitopes"}, {"measurement": "bacterial morphology", "setting": "[5]", "value": "substantially damaged with clear changes in morphology"}, {"measurement": "antigenicity (in vitro potency testing using envelope-specific MAbs)", "setting": "[6]; 3% H2O2 under standard conditions", "value": "nearly complete loss of antigenicity"}]}
{"smiles": "CCCN1C(=O)C(=NNC(N)=S)c2ccccc21", "note": "[N-propylisatin β-thiosemicarbazone]", "values": [{"measurement": "rate of inactivation (viable virus at 1 hr post-inactivation)", "setting": "[7]; CuCl2=1 μM, 150 mM NaPO4", "value": "enhanced rates of inactivation"}, {"measurement": "antigenicity (ELISA at 20 hrs post-inactivation)", "setting": "[1]; CuCl2=1 μM, 150 mM NaPO4", "value": "superior antigenicity"}]}
{"smiles": "O=P(O)(O)O", "note": "[Na2HPO4, sodium phosphate]", "values": [{"measurement": "virus inactivation with added salt during H2O2/CuCl2 inactivation", "setting": "[7]", "value": "complete virus inactivation"}, {"measurement": "virus inactivation", "setting": "[7]; [15]", "value": "completely inactivated"}, {"measurement": "virus inactivation", "setting": "[7]; [16]", "value": "completely inactivated"}, {"measurement": "kinetics of virus inactivation in presence vs absence of high Na2HPO4", "setting": "[7]; 150 mM vs 10 mM, 0.01% H2O2, 1 μM CuCl2", "value": "similar"}, {"measurement": "virus inactivation", "setting": "[7]; [17]", "value": "completely inactivated"}, {"measurement": "residual live virus (co-culture, estimated LOD of 100 PFU/mL)", "setting": "[8]", "value": "completely inactivated"}, {"measurement": "ELISA signal with added oxyanion during H2O2/CuCl2 inactivation", "setting": "[6]; 0.01% H2O2, 5 μM CuCl2, 20 hours, 150 mM Na2HPO4 with or without 3 mM Na3P3O9", "value": "increased ELISA signals"}, {"measurement": "ELISA signal / antigenicity with added salt during H2O2/CuCl2 inactivation", "setting": "[1]; room temperature", "value": "increased ELISA signal"}, {"measurement": "ELISA signal with added oxyanion during formaldehyde inactivation", "setting": "[1]", "value": "increased ELISA signals"}, {"measurement": "ELISA signal with added oxyanion during BPL inactivation", "setting": "[1]; 20 hours, room temperature", "value": "increased ELISA signals"}, {"measurement": "ELISA signal with added oxyanion during BEI inactivation", "setting": "[1]; [17]", "value": "increased ELISA signals"}]}
{"smiles": "NC(=S)NN=C1C(=O)Nc2ccccc21", "note": "[isatin β-thiosemicarbazone]", "values": [{"measurement": "rate of inactivation (viable virus at 1 hr post-inactivation)", "setting": "[7]; CuCl2=1 μM, 150 mM NaPO4", "value": "enhanced rates of inactivation"}, {"measurement": "antigenicity (ELISA at 20 hrs post-inactivation)", "setting": "[1]; CuCl2=1 μM, 150 mM NaPO4", "value": "superior antigenicity"}]}
{"smiles": "O=C1Nc2ccccc2C1=O", "note": "[isatin]", "values": [{"measurement": "rate of inactivation (viable virus at 1 hr post-inactivation)", "setting": "[7]; CuCl2=1 μM, 150 mM NaPO4", "value": "do not appear to increase the rate of inactivation"}, {"measurement": "antigenicity (ELISA at 20 hrs post-inactivation)", "setting": "[1]; CuCl2=1 μM, 150 mM NaPO4", "value": "protection of protein antigens from oxidative damage"}]}
{"smiles": "[Cl-].[Cl-].[Mg+2]", "note": "[magnesium chloride, reference compound]", "values": [{"measurement": "ELISA signal / antigenicity with added salt during H2O2/CuCl2 inactivation", "setting": "[1]; room temperature", "value": "no protective effect on antigenicity"}]}
{"smiles": "O=S(=O)([O-])[O-].[Mg+2]", "note": "[magnesium sulfate]", "values": [{"measurement": "virus inactivation with added salt during H2O2/CuCl2 inactivation", "setting": "[7]", "value": "complete virus inactivation"}, {"measurement": "ELISA signal / antigenicity with added salt during H2O2/CuCl2 inactivation", "setting": "[1]; room temperature", "value": "improved antigenicity"}]}
{"smiles": "CN1C(=O)/C(=N\\NC(N)=S)c2ccccc21", "note": "[methisazone, N-methyl-isatin β-thiosemicarbazone]", "values": [{"measurement": "serious adverse events", "setting": "[9]; mean initial dose 152 mg/kg, total average 809 mg/kg over 3.75 days", "value": "lack of serious adverse events"}, {"measurement": "complications of vaccinia vaccination", "setting": "[9]; used prophylactically prior to vaccinia vaccination", "value": "reduce complications"}, {"measurement": "rate of dual-oxidation-based inactivation on addition of methisazone", "setting": "[7]; H2O2=0.002%, CuCl2=1 μM, MZ=10 μM, 150 mM NaPO4", "value": "substantially increase the rate"}, {"measurement": "virus inactivation by methisazone alone", "setting": "[7]; MZ=10 μM", "value": "minimal impact"}, {"measurement": "increase of the rate of inactivation on addition of methisazone", "setting": "[7]; dual oxidation, 150 mM NaPO4, stated for CHIKV and DENV4 together", "value": "10- to 20 fold"}, {"measurement": "increase of the rate of inactivation on addition of methisazone", "setting": "[8]", "value": "10- to 20 fold"}, {"measurement": "rate of dual-oxidation-based inactivation on addition of methisazone", "setting": "[8]", "value": "substantially increase the rate"}, {"measurement": "virus inactivation (plaque assay at 1 hr) with increasing methisazone relative to the transition metal", "setting": "[8]", "value": "increased virus inactivation rates"}, {"measurement": "virus inactivation by methisazone alone", "setting": "[8]", "value": "minimal impact"}, {"measurement": "inactivation rate on addition of methisazone to H2O2/CuCl2", "setting": "[10]", "value": "substantially enhanced inactivation rates"}, {"measurement": "rate of dual-oxidation-based inactivation on addition of methisazone", "setting": "[11]", "value": "substantially increase the rate"}, {"measurement": "inactivation rate on addition of methisazone to H2O2/CuCl2", "setting": "[12]", "value": "substantially enhanced inactivation rates"}, {"measurement": "inactivation rate on addition of methisazone to H2O2/CuCl2", "setting": "[13]", "value": "substantially enhanced inactivation rates"}, {"measurement": "deaths among close contacts receiving methisazone", "setting": "[14]", "value": "no deaths"}, {"measurement": "antigenicity on addition of methisazone to dual oxidation", "setting": "[6]; [18]", "value": "maintained or significantly improved antigenicity"}, {"measurement": "retained antigenicity at 20 hrs with increasing methisazone relative to the transition metal", "setting": "[6]; H2O2 0.02%, CuCl2 1 μM, 150 mM NaPO4", "value": "improvements in both retained antigenicity"}, {"measurement": "antigenicity on addition of methisazone to dual oxidation", "setting": "[1]; [18]", "value": "maintained or significantly improved antigenicity"}, {"measurement": "antigenicity, methisazone together with polyatomic oxyanions", "setting": "[1]; H2O2=0.002%, CuCl2=1 μM, 150 mM Na2HPO4, methisazone 10 μM, 20 hours", "value": "higher antigenicity than could be achieved by either approach in isolation"}]}
{"smiles": "NNC(N)=O", "note": "[semicarbazide]", "values": [{"measurement": "rate of inactivation (viable virus at 1 hr post-inactivation)", "setting": "[7]; CuCl2=1 μM, 150 mM NaPO4", "value": "do not appear to increase the rate of inactivation"}, {"measurement": "antigenicity (ELISA at 20 hrs post-inactivation)", "setting": "[1]; CuCl2=1 μM, 150 mM NaPO4", "value": "protection of protein antigens from oxidative damage"}]}
{"smiles": "[Cl-].[Na+]", "note": "[sodium chloride, reference compound]", "values": [{"measurement": "ELISA signal / antigenicity with added salt during H2O2/CuCl2 inactivation", "setting": "[1]; room temperature", "value": "no protective effect on antigenicity"}]}
{"smiles": "O=S(=O)([O-])[O-].[Na+].[Na+]", "note": "[sodium sulfate]", "values": [{"measurement": "virus inactivation with added salt during H2O2/CuCl2 inactivation", "setting": "[7]", "value": "complete virus inactivation"}, {"measurement": "virus inactivation", "setting": "[7]; [15]", "value": "completely inactivated"}, {"measurement": "virus inactivation", "setting": "[7]; [16]", "value": "completely inactivated"}, {"measurement": "ELISA signal / antigenicity with added salt during H2O2/CuCl2 inactivation", "setting": "[1]; room temperature", "value": "improved antigenicity"}, {"measurement": "ELISA signal with added oxyanion during formaldehyde inactivation", "setting": "[1]", "value": "increased ELISA signals"}, {"measurement": "ELISA signal with added oxyanion during BPL inactivation", "setting": "[1]; 20 hours, room temperature", "value": "increased ELISA signals"}]}
{"smiles": "O=P1([O-])OP(=O)([O-])OP(=O)([O-])O1.[Na+].[Na+].[Na+]", "note": "[sodium trimetaphosphate]", "values": [{"measurement": "virus inactivation with added salt during H2O2/CuCl2 inactivation", "setting": "[7]", "value": "completely inactivated"}, {"measurement": "ELISA signal / antigenicity with added salt during H2O2/CuCl2 inactivation", "setting": "[1]; room temperature", "value": "increased ELISA signals"}]}
{"smiles": "O=P([O-])([O-])OP(=O)([O-])OP(=O)([O-])[O-].[Na+].[Na+].[Na+].[Na+].[Na+]", "note": "[sodium triphosphate]", "values": [{"measurement": "virus inactivation with added salt during H2O2/CuCl2 inactivation", "setting": "[7]", "value": "completely inactivated"}, {"measurement": "ELISA signal / antigenicity with added salt during H2O2/CuCl2 inactivation", "setting": "[1]; room temperature", "value": "increased ELISA signals"}]}
{"smiles": "NNC(N)=S", "note": "[thiosemicarbazide]", "values": [{"measurement": "rate of inactivation (viable virus at 1 hr post-inactivation)", "setting": "[7]; CuCl2=1 μM, 150 mM NaPO4", "value": "enhancement of inactivation"}, {"measurement": "antigenicity (ELISA at 20 hrs post-inactivation)", "setting": "[1]; CuCl2=1 μM, 150 mM NaPO4", "value": "superior antigenicity"}]}
